Results from patent publication US20220153786A1, “PEPTIDES FOR PREVENTING BIOFILM FORMATION” (priority 2019, published 2022).

Experiments:
[1] = test system: Staphylococcus epidermidis ATCC 35984; experiment: Bacterial growth assay, microtiter plates OD600; format: cell-based; conditions: untreated growth control = 100%
Procedure: Bacterial growth assays. Microtiter plates: bacterial growth was evaluated by difference between the optical density absorbance at 600 nm measured at the end and the beginning of the incubation time (37° C., 1, 4 or 24 h) in 96-well poly(vinyl chloride) microtiter plates. Rifampicin 16 μg/mL (Sigma-Aldrich Co., USA) was used as a control for bacterial growth inhibition. Colony-forming units (CFU/mL): after incubation (37° C., 24 h) the CFU was calculated to determine bactericidal effect of peptide solution. Untreated growth control was considered 100% of planktonic cells. All assays were at least performed as technical and biological triplicates.
Microtiter plates: Bacterial growth was evaluated by comparing OD600 values at the start and end of incubation in 96-well PVC microtiter plates.

[2] = test system: Staphylococcus epidermidis RP62A (ATCC 35984) biofilm; experiment: Biofilm formation inhibition, crystal violet in 96-well PVC microtiter plates; format: cell-based; conditions: biofilm formation control = 100%
Procedure: Biofilm formation. […] Biofilm inhibition: a protocol adapted from Zimmer et al. (2013) Environmental Microbiology 15:2008-2018 and Trentin et al. (2015) Scientific Reports 5:8287, employing crystal violet in 96-well poly(vinyl chloride) microtiter plates (Falcon; Becton Dickinson Labware, Oxnard, Calif.) was used. Briefly, 100 μL of the bacterial suspension, 100 μL of the peptide solution (at different concentrations) or vehicle (to controls) and 50 μL of tryptone soya broth (TSB, Oxoid Ltd., England). Following 37° C. for 1, 4 or 24 h of incubation, the content of the wells was removed and the wells were washed three times with sterile saline. The remaining contents were heat-fixed at 60° C. for 1 h. The adherent biofilm layer formed was stained with 0.4% crystal violet for 15 min at room temperature and then washed three times with distilled water. The stain bound to the cells was solubilized with absolute ethanol (Sigma-Aldrich Co., USA) and absorbance was measured at 570 nm (Powerwave™ XS Plate Reader, BIO-TEK Instruments®, Inc.). The biofilm formation controls represent 100% of biofilm formation. Biofilm eradication: biofilm was pre-formed as described before, during 24 h at 37° C., without treatment. After biofilm formation, the wells were washed to remove the planktonic cells and the peptides solutions and controls were added and incubated for 24 h. The eradication was verified by evaluating the remaining content by crystal violet.
Biofilm formation inhibition: A protocol adapted from Trentin et al. (2015) Scientific Reports 5 was used, with crystal violet in 96-well BD Falcon polyvinyl chloride (PVC) microtiter plates. The cell-bound stains were solubilized with absolute ethanol (Sigma-Aldrich), and absorbance was measured at 570 nm using a BIO-TEK PowerWave XS plate reader. The biofilm formation control represents 100% of biofilm formation.

[3] = positive control, concentration 780 (μM)

Molecule: RVQSEEGEDQISQRE (P1)
- Growth (%) ([1]; peptide concentration 100 μM): 123.2%
- Remanescent biofilm (%) ([2]; peptide concentration 100 μM): 64.9%

Molecule: RSCQQQ (P3x)
- Growth (%) ([1]; peptide concentration 100 μM): 91.9%
- Remanescent biofilm (%) ([2]; peptide concentration 100 μM): 34.4%

Molecule: IQQAQQLS (P3y)
- Growth (%) ([1]; peptide concentration 10 μM): 172.0%
- Remanescent biofilm (%) ([2]; peptide concentration 10 μM): 6.2%

Molecule: CO[C@H]1/C=C/O[C@@]2(C)Oc3c(C)c(O)c4c(O)c(c(/C=N/N5CCN(C)CC5)c(O)c4c3C2=O)NC(=O)/C(C)=C\C=C\[C@H](C)[C@H](O)[C@@H](C)[C@@H](O)[C@@H](C)[C@H](OC(C)=O)[C@@H]1C [Rifampicin, reference compound]
- Growth (%) [1, 3]: 28.7%
- Remanescent biofilm (%) [2, 3]: 9.7%

Molecule: SCQQYLKQ (P3z)
- Growth (%) ([1]; peptide concentration 100 μM): 169.9%
- Remanescent biofilm (%) ([2]; peptide concentration 100 μM): 46.3%

Molecule: RSCQQQIQQAQQ (P3a)
- Growth (%) ([1]; peptide concentration 100 μM): 89.9%
- Remanescent biofilm (%) ([2]; peptide concentration 100 μM): 61.5%

Molecule: RSCQQQIQQAQQLSSCQQYLKQRVQSEEGEDQISQRE (P31) [synthetic peptide derived from 2S sulfur-rich seed storage protein 2-like of Capsicum baccatum]
- Growth (%) ([1]; peptide concentration 400 μM): 88.6%
- Remanescent biofilm (%) ([2]; peptide concentration 400 μM): 8.3%
